We go through six molecules from PubChem BioAssay (NCI).

“And” between values parts separate entries of the source, which are not always exact repeats. Equal values may be shown once.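 48-hour exposure; five concentrations; linearly interpolated endpoints. GI50 = concentration required for 50% inhibition of growth. The concentration for full growth arrest is given as TGI.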

Common to all, as to test: growth of human tumour cells (NCI), 48 h
Assay [1] has as its system SN12C renal.
In assay [2] the test system is MALME-3M melanoma.
In assay [3] the test system is PC-3 prostate.
Assay [4] has as its system IGROV1 ovarian.
For assay [5], the system named is A498 renal.
Assay [6] has as its system OVCAR-8 ovarian.
For assay [7], the system named is NCI-H522 lung.
Assay [8] concerns NCI-H226 lung.
In assay [9] the test system is UO-31 renal.
Assay [10] has as its system MOLT-4 leukemia.

As to `Cc1ccc(-c2nc([P+](c3ccccc3)(c3ccccc3)c3ccccc3)c(N3CCOCC3)o2)cc1`, the GI50 in assay [1] was 0.335 µM; in assay [2], 0.378 µM; in assay [3], 0.315 µM; in assay [4], 0.419 µM; in assay [5], 0.881 µM; in assay [6], 0.505 µM. For the same molecule, the GI50 was 0.371 µM in assay [7], 0.724 µM in [8], 2.23 µM in [9] and 0.499 µM in assay [10]. Moreover, the TGI in [1] was determined as 4.16 µM; in [2] it was 3.11 µM; in assay [3], 3.72 µM; in [4], 4.11 µM; in [5] it was 4.5 µM; in assay [6], 9.5 µM. In addition, the TGI in assay [7] turned out to be 7.39 µM; in [8], 8.03 µM; in assay [9] it was 7.3 µM; in [10], 3.27 µM.
Turning to `COc1nc(N)nc2nc[nH]c12`, the GI50 is 536 µM and 552 µM in [1]; > 800 µM and 665 µM in assay [2]; 460 µM and 529 µM in assay [4]; 306 µM and 335 µM in assay [5]; > 800 µM and 579 µM in assay [6]; 554 µM in assay [7]. Besides, the GI50 in assay [8] was 400 µM and 380 µM; in assay [9], 161 µM and 299 µM; in [10] it was above 800 µM. For the same molecule, the TGI in assay [1] is 500 µM and 800 µM and > 1000 µM; in [2], 356 µM and > 800 µM and > 1000 µM; in [3] it was 500 µM and > 1000 µM; in assay [4] it was 454 µM and 800 µM and > 1000 µM; in assay [5], 500 µM and 800 µM and 691 µM; in assay [6], above 800 µM. In addition, the TGI in assay [7] is 500 µM and 800 µM and > 917 µM; in assay [8], 458 µM and 800 µM and > 1000 µM; in [9], 485 µM and 579 µM and > 1000 µM; in assay [10], 500 µM and > 800 µM and > 1000 µM.
Take `C#CCCCCCC(=O)N[C@H]1C=C[C@@H]2/C=C(C)/C=C/[C@@H](C)[C@H]([C@H](C)[C@H](O)[C@@H](C)NC(C)=O)OC(=O)/C=C/C=C(C)\C=C\[C@]2(C)C1`: the GI50 in assay [1] is below 0.004 µM; in assay [2] it was 0.567 µM; in [3], below 0.004 µM; in assay [4], 0.00681 µM; in [5], 0.0046 µM; in assay [6], below 0.004 µM. In addition, the GI50 is 0.0091 µM in assay [7], 0.00478 µM in assay [8], below 0.004 µM in assay [9] and 6.79 µM in [10]. Further, the TGI is above 40 µM in [1]; 17.9 µM in [2]; above 40 µM in [3]; above 40 µM in [4]; 0.0383 µM in [5]; above 40 µM in [6]. Moreover, the TGI was 14.2 µM in assay [7], 6.05 µM in assay [8], 8.95 µM in assay [9] and above 40 µM in assay [10].
On to `O=C(CC1(O)C(=O)Nc2c(Cl)cc(Cl)cc21)c1cccc([N+](=O)[O-])c1` (centres undefined), for which the TGI in [1] is 58.1 µM; in assay [2], 35.9 µM; in assay [3], above 100 µM; in assay [4] it was 55.8 µM; in assay [5] it was 66.8 µM; in assay [6], above 83.9 µM. Moreover, the TGI was above 100 µM in assay [7], above 77.5 µM in [8], 60.1 µM in assay [9] and 51.5 µM in [10].
Regarding `O=C1NC(=NCc2cccs2)O/C1=C\c1ccc2ncccc2c1`, the GI50 in assay [1] was 5.86 µM; in assay [2], 4.85 µM; in assay [3] it was 6.33 µM; in assay [4] it was 3.51 µM; in [5], 0.606 µM; in assay [6] it was 4.27 µM. Also, the GI50 in assay [7] is 2 µM; in assay [8] it was 5.82 µM; in assay [9], 4.99 µM; in [10] it was 4.88 µM. In addition, the TGI in assay [1] is above 25 µM; in assay [2], 15.3 µM; in [3], above 25 µM; in [4], 10.5 µM; in assay [5] it was 4.81 µM; in assay [6], 16.6 µM. Besides, the TGI was 8.34 µM in assay [7], above 19.8 µM in [8], 14.1 µM in assay [9] and 12.4 µM in assay [10].
Consider `Nc1cc(C(F)(F)F)c(-c2nc(N3CCOCC3)nc(N3CCOCC3)n2)cn1`, for which the GI50 in assay [1] is 0.416 µM; in assay [2], 0.0983 µM; in assay [3] it was 0.258 µM; in [4], 0.0916 µM; in assay [5], 0.14 µM; in assay [6], 0.89 µM. The GI50 was 0.624 µM in [7], 0.384 µM in assay [8], 0.111 µM in [9] and 0.426 µM in assay [10]. Further, the TGI in assay [1] is above 48.1 µM; in assay [2], 0.561 µM; in assay [3], above 100 µM; in [4], 0.528 µM; in assay [5] it was 0.45 µM; in [6] it was above 66.1 µM. The TGI in assay [7] is above 83.9 µM; in assay [8], 12.2 µM; in assay [9] it was 2.08 µM; in [10] it was 39.8 µM.
